Broadly, the EC50 is the concentration at which the effect is half-maximal. A high value points to a need for much substance.

Counter-ions that a name gives are not always drawn.

The target in the assay is T1, human TLR7 (Homo sapiens, UniProt Q9NYK1).
T1 construct: expressed in transfected cells; host or cells: HEK293 cell line stably expressing the pNiFty2-SEAP reporter plasmid; TLR7 in pUNO vector, blasticidin selection
T1 sequence (Q9NYK1 27-1049): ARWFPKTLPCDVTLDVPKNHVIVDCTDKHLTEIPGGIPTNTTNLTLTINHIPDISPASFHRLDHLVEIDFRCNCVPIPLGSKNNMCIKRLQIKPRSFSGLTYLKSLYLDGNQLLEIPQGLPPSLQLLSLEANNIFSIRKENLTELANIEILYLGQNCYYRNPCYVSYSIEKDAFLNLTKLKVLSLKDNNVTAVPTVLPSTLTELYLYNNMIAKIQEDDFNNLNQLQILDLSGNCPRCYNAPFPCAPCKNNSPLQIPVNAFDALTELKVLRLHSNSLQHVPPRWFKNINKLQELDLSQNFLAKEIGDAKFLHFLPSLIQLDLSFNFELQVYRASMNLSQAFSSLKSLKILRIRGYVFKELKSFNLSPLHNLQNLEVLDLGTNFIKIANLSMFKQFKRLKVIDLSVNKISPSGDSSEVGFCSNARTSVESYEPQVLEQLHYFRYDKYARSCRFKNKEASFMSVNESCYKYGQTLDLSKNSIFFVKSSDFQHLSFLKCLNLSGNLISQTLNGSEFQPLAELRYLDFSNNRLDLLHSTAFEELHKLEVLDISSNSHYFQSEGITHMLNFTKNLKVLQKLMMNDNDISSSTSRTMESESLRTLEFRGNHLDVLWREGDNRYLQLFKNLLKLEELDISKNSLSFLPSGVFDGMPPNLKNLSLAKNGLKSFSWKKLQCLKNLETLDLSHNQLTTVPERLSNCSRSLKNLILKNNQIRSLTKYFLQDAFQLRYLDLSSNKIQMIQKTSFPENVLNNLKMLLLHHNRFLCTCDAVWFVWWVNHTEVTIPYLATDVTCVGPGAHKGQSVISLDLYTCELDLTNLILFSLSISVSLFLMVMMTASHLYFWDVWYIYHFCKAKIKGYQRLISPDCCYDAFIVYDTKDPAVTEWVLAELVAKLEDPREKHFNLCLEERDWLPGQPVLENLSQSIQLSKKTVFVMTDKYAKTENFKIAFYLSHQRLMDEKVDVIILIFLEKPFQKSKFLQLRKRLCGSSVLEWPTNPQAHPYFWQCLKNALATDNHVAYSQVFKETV
The experiment in a line: Human TLR7 assay (SEAP reporter in HEK293 cells). In kind it is cell-based. The conditions noted are these: SEAP induction in HEK293 cells expressing human TLR7, overnight incubation at 37° C., 0.1% DMSO.
Description: The most common variant sequence of human TLR7 (represented by the EMBL sequence AF240467) was cloned into the mammalian cell expression vector pUNO and transfected into a HEK293 cell line already stably expressing the pNiFty2-SEAP reporter plasmid; integration of the reporter gene was maintained by selection with the antibiotic zeocin. Transfectants with stable TLR7 expression were selected using the antibiotic blasticidin. In this reporter cell-line, expression of secreted alkaline phosphatase (SEAP) is controlled by an NFkB/ELAM-1 composite promoter comprising five NFkB sites combined with the proximal ELAM-1 promoter. TLR signaling leads to the translocation of NFkB and activation of the promoter results in expression of the SEAP gene. TLR7-specific activation was assessed by determining the level of SEAP produced following overnight incubation of the cells at 37° C. with the standard compound in the presence of 0.1% (v/v) dimethylsulfoxide (DMSO). Concentration dependent induction of SEAP production by compounds was expressed as the concentration of compound which produced half of the maximal level of SEAP induction for that compound (pEC50).
`CCCCc1nc2c(N)nc3ccccc3c2n1CCCN(Cc1ccc(CC(=O)OC)cc1)C(=O)CN1CCC(CC(=O)OCC)CC1` [Example 27, Ethyl 2-(1-(2-((3-(4-amino-2-butyl-1H-imidazo[4,5-c]quinolin-1-yl)propyl)(4-(2-methoxy-2-oxoethyl)benzyl)amino)-2-oxoethyl)piperidin-4-yl)acetate] showed an EC50 of 39.8 nM. `CCCCc1nc2c(N)nc3ccccc3c2n1CCCN(Cc1ccc(CC(=O)OC)cc1)C(=O)CN1CCC(C(=O)OC)CC1` [Example 28, Methyl 1-(2-((3-(4-amino-2-butyl-1H-imidazo[4,5-c]quinolin-1-yl)propyl)(4-(2-methoxy-2-oxoethyl)benzyl)amino)-2-oxoethyl)piperidine-4-carboxylate] gave an EC50 of 200 nM.

`COCCc1nc2c(N)nc3ccccc3c2n1CCCN(Cc1ccc(CC(=O)OC)cc1)C(=O)CN1CCCCC1` [Example 29, Methyl 2-(4-((N-(3-(4-amino-2-(2-methoxyethyl)-1H-imidazo[4,5-c]quinolin-1-yl)propyl)-2-(piperidin-1-yl)acetamido)methyl)phenyl)acetate] gave an EC50 of 100 nM. The molecule `COCCc1nc2c(N)nc3ccccc3c2n1CCCN(Cc1ccc(CC(=O)OC)cc1)C(=O)CN(C)C` [Example 30, Methyl 2-(4-((N-(3-(4-amino-2-(2-methoxyethyl)-1H-imidazo[4,5-c]quinolin-1-yl)propyl)-2-(dimethylamino)acetamido)methyl)phenyl)acetate] gave an EC50 of 200 nM. For `COCCc1nc2c(N)nc3ccccc3c2n1CCCN(Cc1cccc(CC(=O)OC)c1)C(=O)CN1CCCCC1` [Example 31, Methyl 2-(3-((N-(3-(4-amino-2-(2-methoxyethyl)-1H-imidazo[4,5-c]quinolin-1-yl)propyl)-2-(piperidin-1-yl)acetamido)methyl)phenyl)acetate saccharin salt], the EC50 was 158 nM. This EC50 and that of the molecule before are within 1.5-fold of each other. `COCCc1nc2c(N)nc3ccccc3c2n1CCCN(Cc1ccc(CC(=O)OC)cc1)C(=O)CN(C)CCOC` [Example 32, Methyl 2-(4-((N-(3-(4-amino-2-(2-methoxyethyl)-1H-imidazo[4,5-c]quinolin-1-yl)propyl)-2-((2-methoxyethyl)(methyl)amino)acetamido)methyl)phenyl)acetate] showed a concentration giving a half-maximal response (EC50) of 158 nM. `COCCc1nc2c(N)nc3ccccc3c2n1CCCN(Cc1ccc(CC(=O)OC)cc1)C(=O)CCN1CCCCC1` [Example 33, Methyl 2-(4-((N-(3-(4-amino-2-(2-methoxyethyl)-1H-imidazo[4,5-c]quinolin-1-yl)propyl)-3-(piperidin-1-yl)propanamido)methyl)phenyl)acetate] showed an EC50 of 158 nM. In other words, the sub-micromolar range.

For `COCCc1nc2c(N)nc3ccccc3c2n1CCCN(CCCN1CCOCC1)Cc1ccc(CC(=O)OC)cc1` [Example 34, Methyl 2-(4-(((3-(4-amino-2-(2-methoxyethyl)-1H-imidazo[4,5-c]quinolin-1-yl)propyl)(3-morpholinopropyl)amino)methyl)phenyl)acetate], the response was half-maximal at 316 nM (EC50). In turn, `COCCc1nc2c(N)nc3ccccc3c2n1CCCN(Cc1ccc(CC(=O)OC)cc1)C(=O)CN1CCCC1` [Example 37, Methyl 2-(4-((N-(3-(4-amino-2-(2-methoxyethyl)-1H-imidazo[4,5-c]quinolin-1-yl)propyl)-2-(pyrrolidin-1-yl)acetamido)methyl)phenyl)acetate disaccharin salt] gave an EC50 of 398 nM. In turn, `COCCc1nc2c(N)nc3ccccc3c2n1CCCN(Cc1ccc(CC(=O)OC)cc1)C(=O)CN(C)CCO` [Example 38, Methyl 2-(4-((N-(3-(4-amino-2-(2-methoxyethyl)-1H-imidazo[4,5-c]quinolin-1-yl)propyl)-2-((2-hydroxyethyl)(methyl)amino)acetamido)methyl)phenyl)acetate disaccharin salt] showed an EC50 of 1580 nM. As to `CCCCc1nc2c(N)nc3ccccc3c2n1CCCN(Cc1cccc(CC(=O)OC)c1)C(=O)CN(C)CCOC` [Example 39, Methyl 2-(3-((N-(3-(4-amino-2-butyl-1H-imidazo[4,5-c]quinolin-1-yl)propyl)-2-((2-methoxyethyl)(methyl)amino)acetamido)methyl)phenyl)acetate], the midpoint of the response, the EC50, lay at 158 nM.

In turn, `CCCCc1nc2c(N)nc3ccccc3c2n1CCCN(Cc1cccc(CC(=O)OC)c1)C(=O)CN(C)CCCC` [Example 40, Methyl 2-(3-((N-(3-(4-amino-2-butyl-1H-imidazo[4,5-c]quinolin-1-yl)propyl)-2-(butyl(methyl)amino)acetamido)methyl)phenyl)acetate] had an EC50 of 126 nM. With `CCCCc1nc2c(N)nc3ccccc3c2n1CCCN(Cc1cccc(CC(=O)OC)c1)C(=O)CN(CCC)CCC` [Example 41], the EC50 was 79.4 nM. In turn, `CCCCc1nc2c(N)nc3ccccc3c2n1CCCN(Cc1cccc(CC(=O)OC)c1)C(=O)CN(CCO)CCO` [Example 42, Methyl 2-(3-((N-(3-(4-amino-2-butyl-1H-imidazo[4,5-c]quinolin-1-yl)propyl)-2-(bis(2-hydroxyethyl)amino)acetamido)methyl)phenyl)acetate] gave an EC50 of 1580 nM. The same measure for `CCCCc1nc2c(N)nc3ccccc3c2n1CCCN(Cc1cccc(CC(=O)OC)c1)C(=O)CN(C)C1CCOCC1` [Example 43, Methyl 2-(3-((N-(3-(4-amino-2-butyl-1H-imidazo[4,5-c]quinolin-1-yl)propyl)-2-(methyl(tetrahydro-2H-pyran-4-yl)amino)acetamido)methyl)phenyl)acetate]: 126 nM; for `CCCCc1nc2c(N)nc3ccccc3c2n1CCCN(Cc1cccc(CC(=O)OC)c1)C(=O)CN1CCC1` [Example 44, Methyl 2-(3-((N-(3-(4-amino-2-butyl-1H-imidazo[4,5-c]quinolin-1-yl)propyl)-2-(azetidin-1-yl)acetamido)methyl)phenyl)acetate]: 251 nM. For `CCCCc1nc2c(N)nc3ccccc3c2n1CCCN(Cc1cccc(CC(=O)OC)c1)C(=O)CN1CC(O)C1` [Example 45, Methyl 2-(3-((N-(3-(4-amino-2-butyl-1H-imidazo[4,5-c]quinolin-1-yl)propyl)-2-(3-hydroxyazetidin-1-yl)acetamido)methyl)phenyl)acetate] the value was 1580 nM. The same measure for `CCCCc1nc2c(N)nc3ccccc3c2n1CCCN(Cc1cccc(CC(=O)OC)c1)C(=O)CN1CCCC1` [Example 46, Methyl 2-(3-((N-(3-(4-amino-2-butyl-1H-imidazo[4,5-c]quinolin-1-yl)propyl)-2-(pyrrolidin-1-yl)acetamido)methyl)phenyl)acetate]: 63.1 nM.

As to `CCCCc1nc2c(N)nc3ccccc3c2n1CCCN(Cc1cccc(CC(=O)OC)c1)C(=O)CN1CCC(O)C1` (centres unmarked) [Example 47, Methyl 2-(3-((N-(3-(4-amino-2-butyl-1H-imidazo[4,5-c]quinolin-1-yl)propyl)-2-(3-hydroxypyrrolidin-1-yl)acetamido)methyl)phenyl)acetate], it took 398 nM to reach a half-maximal effect (EC50). `CCCCc1nc2c(N)nc3ccccc3c2n1CCCN(Cc1cccc(CC(=O)OC)c1)C(=O)CN1CC[C@@H](O)C1` [Example 48, (R)-Methyl 2-(3-((N-(3-(4-amino-2-butyl-1H-imidazo[4,5-c]quinolin-1-yl)propyl)-2-(3-hydroxypyrrolidin-1-yl)acetamido)methyl)phenyl)acetate] showed an EC50 of 398 nM. In turn, `CCCCc1nc2c(N)nc3ccccc3c2n1CCCN(Cc1cccc(CC(=O)OC)c1)C(=O)CN1CCCCC1` [Example 49, Methyl 2-(3-((N-(3-(4-amino-2-butyl-1H-imidazo[4,5-c]quinolin-1-yl)propyl)-2-(piperidin-1-yl)acetamido)methyl)phenyl)acetate] showed an EC50 of 79.4 nM. `CCCCc1nc2c(N)nc3ccccc3c2n1CCCN(Cc1cccc(CC(=O)OC)c1)C(=O)CN1CCC(O)CC1` [Example 50, Methyl 2-(3-((N-(3-(4-amino-2-butyl-1H-imidazo[4,5-c]quinolin-1-yl)propyl)-2-(4-hydroxypiperidin-1-yl)acetamido)methyl)phenyl)acetate] had an EC50 of 501 nM.

For the molecule `CCCCc1nc2c(N)nc3ccccc3c2n1CCCN(Cc1cccc(CC(=O)OC)c1)C(=O)CN1CCC(OC)CC1` [Example 51, Methyl 2-(3-((N-(3-(4-amino-2-butyl-1H-imidazo[4,5-c]quinolin-1-yl)propyl)-2-(4-methoxypiperidin-1-yl)acetamido)methyl)phenyl)acetate], the EC50 was 200 nM.
